Activity calls are given as the source filed them. The calls are words filed in the database; no cut-off is given here.
Experiments:
[1] = molecular target: T1, High affinity 3',5'-cyclic-AMP phosphodiesterase 7A (Homo sapiens, UniProt Q13946); experiment: Inhibition of cloned human recombinant PDE7A assessed as [3H]cAMP hydrolysis by radiometric assay
Mus musculus [2] = experiment: Neurotoxicity in sc dosed C57BL/6 mouse assessed as induction of catalepsy measured at 0.5 to 1 hr; type: toxicity, organism-based; conditions: in vivo
Mus musculus [3] = experiment: Antiparkinsonian activity in C57BL/6 mouse assessed as decrease in MPTP-induced vertical rearing behavior impairment at 12.5 mg/kg, ip administered 30 mins on day 7 post MPTP challenge; type: functional, organism-based; parameters: dose 12.5 mg/kg
[4] = molecular target: T1, High affinity 3',5'-cyclic-AMP phosphodiesterase 7A; experiment: Inhibition of cloned human recombinant PDE7A assessed as [3H]cAMP hydrolysis at 1 uM by radiometric assay

T1 sequence (Q13946 whole entry): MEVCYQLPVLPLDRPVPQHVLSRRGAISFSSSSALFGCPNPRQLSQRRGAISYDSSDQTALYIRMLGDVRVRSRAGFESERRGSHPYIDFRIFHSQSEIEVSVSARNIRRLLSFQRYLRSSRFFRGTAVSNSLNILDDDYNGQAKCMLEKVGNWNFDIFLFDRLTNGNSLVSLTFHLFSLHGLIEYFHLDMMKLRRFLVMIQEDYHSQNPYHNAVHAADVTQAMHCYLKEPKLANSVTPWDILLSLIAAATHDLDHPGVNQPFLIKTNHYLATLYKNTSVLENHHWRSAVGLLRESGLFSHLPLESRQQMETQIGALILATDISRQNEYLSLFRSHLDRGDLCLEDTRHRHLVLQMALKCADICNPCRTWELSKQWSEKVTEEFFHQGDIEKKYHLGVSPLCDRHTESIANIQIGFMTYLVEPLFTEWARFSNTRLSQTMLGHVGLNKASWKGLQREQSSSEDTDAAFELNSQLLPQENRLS

| SMILES | IC50 [1] | other results |
| --- | --- | --- |
| COc1cc(-c2n[nH]c(=O)o2)ccc1-c1nc2c(C)nn(C3CCCCC3)c(=O)c2[nH]1 | 68 nM | – |
| O=C(CCCN1CCC(O)(c2ccc(Cl)cc2)CC1)c1ccc(F)cc1 [HALOPERIDOL] | – | Activity (Mus musculus [2]): Dose-dependent effect |
| COc1cc(N2CCCN(C(C)=O)CC2)ccc1-c1nc2c(C)nn(C3CCCCC3)c(=O)c2[nH]1 | 32 nM | – |
| COc1cc(CCC(N)=O)ccc1-c1nc2c(C)nn(C3CCCCC3)c(=O)c2[nH]1 | 93 nM | – |
| NC(CO)C(=O)NNCc1ccc(O)c(O)c1O (centres undefined) | – | Activity (Mus musculus [3]): Active |
| COc1cc(N2CC(O)C2)ccc1-c1nc2c(C)nn(C3CCCCC3)c(=O)c2[nH]1 | 53 nM | – |
| COc1cc(C2CC2C(N)=O)ccc1-c1nc2c(C)nn(C3CCCCC3)c(=O)c2[nH]1 (centres undefined) | 3 nM | – |
| COc1cc(N2CCC(N)CC2)ccc1-c1nc2c(C)nn(C3CCCC3)c(=O)c2[nH]1 | – | inhibition [4]: 89% |
| COc1cc(N2CCC(O)C2)ccc1-c1nc2c(C)nn(C3CCCCC3)c(=O)c2[nH]1 (centres undefined) | 71 nM | – |

Further molecules by falling IC50 [1], results first:

| IC50 [1] | SMILES | other results |
| --- | --- | --- |
| 89 nM | COc1cc(/C=C/C(N)=O)ccc1-c1nc2c(C)nn(C3CCCCC3)c(=O)c2[nH]1 | – |
| 81 nM | COc1cc(N2CCC(O)CC2)ccc1-c1nc2c(C)nn(C3CCCCC3)c(=O)c2[nH]1 | – |
| 77 nM | COc1cc(N2CC[C@@H](N)C2)ccc1-c1nc2c(C)nn(C3CCCCC3)c(=O)c2[nH]1 | – |
| 55 nM | COc1cc(O[C@@H]2CCNC2)ccc1-c1nc2c(C)nn(C3CCCCC3)c(=O)c2[nH]1 | – |
| 24 nM | CNC(=O)Nc1ccc(-c2nc3c(C)nn(C4CCCCC4)c(=O)c3[nH]2)c(OC)c1 | – |
